Measurements taken from patent US8257931B2 (President and Fellows of Harvard College, priority 2005, dated 2012).
“And” between values parts separate entries of the source, which are not always exact repeats. Equal values may be shown once. Read-outs that look alike come from different tables or passages of the source.

Tests used:
A549 lung cancer cells = assay: A549 proliferation, sulforhodamine B (SRB) assay; type: cell-based, human; conditions: sulforhodamine B assay, triplicate
Procedure: FIG. 28 is a graph showing the results of a cell proliferation assay. A549 cells, which are human lung cancer cells, are grown in plates for five days in medium containing 5% FCS and compound. The number of cells is quantified by staining with sulforhodamine B.

eIF4E/eIF4G interaction = molecular target: T1, eIF4E/eIF4G interaction (Mus musculus, UniProt P63073); assay: Fluorescence polarization assay: binding of fluorescein-labeled eIF4G peptide to eIF4E; design: species or system murine; conditions: triplicate, SD<±10%; for IC50: read-out: IC50 (μM) (4E/4G FP)
T1 construct: made in house; host or cells: E. coli
Procedure: We adapted this assay to a microwell plate format and used it to screen the 16,000 compound Chembridge DiverSet E library. […] For screening and subsequent peptide binding assays measurements of fluorescence polarization were made using an LJL Analyst plate reader. For the screening assay a solution containing approximately 5 μM meIF4E, 60 nM labeled peptide, 0.05% bovine γ-globulin, and 2 mM DTT in a buffer composed of 50 mM sodium phosphate and 50 mM potassium chloride at pH 6.5 was used. […] The curve fitting for estimation of binding constants used equations derived by Roehrl et al.^22 Measurements of fluorescence polarization and anisotropy were made in black 384-well plates (Corning) using an Analyst plate reader (LJL Biosystems) Compounds were transferred to plates during the screening using a custom-built Seiko pin transfer robot at the Institute for Chemistry and Cell Biology (ICCB) at Harvard Medical School.
A fluorescence polarization (FP) assay was developed to measure binding of a peptide containing the conserved eIF4E-binding motif to eIF4E.
The assay was adapted to a microwell plate format and used to screen a number of libraries comprised of small molecule libraries for potential eIF4E/eIF4G interaction inhibitors.

[1] = Homo sapiens, A549, Table 1 of b280
[2] = Homo sapiens, A549, Table 1 of b347

T1 sequence (P63073 whole entry): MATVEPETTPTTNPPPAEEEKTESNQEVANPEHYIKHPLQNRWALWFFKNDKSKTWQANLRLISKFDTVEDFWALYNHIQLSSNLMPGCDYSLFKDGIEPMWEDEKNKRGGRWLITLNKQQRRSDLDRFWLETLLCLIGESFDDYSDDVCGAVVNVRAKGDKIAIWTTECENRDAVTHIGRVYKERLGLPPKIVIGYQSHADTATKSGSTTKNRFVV

Structure (SMILES)	IC50 (eIF4E/eIF4G interaction; Table 1 of b280) [µM]	GI50 (A549 lung cancer cells; Table 1)	IC50 (eIF4E/eIF4G interaction; Table 1 of b347)	also measured
O=C(O)/C(Cc1ccccc1[N+](=O)[O-])=N/Nc1nc(-c2ccc(-c3ccccc3)cc2)cs1				GI50 (A549 lung cancer cells; [1]): 4 µM
O=C(O)/C(Cc1ccccc1[N+](=O)[O-])=N/Nc1nc(-c2ccc3ccccc3c2)cs1	215			GI50 (A549 lung cancer cells; [1]): 6 µM
O=C(O)/C(Cc1ccccc1[N+](=O)[O-])=N/Nc1nc(-c2ccc(N3CCCC3)cc2)cs1	> 600			GI50 (A549 lung cancer cells; [1]): > 20 µM
O=C(O)/C(Cc1ccccc1)=N/Nc1nc(-c2ccc3c(c2)OCCCO3)cs1	400			
O=C(O)/C(Cc1ccccc1)=N/Nc1nc(-c2ccc(N3CCOCC3)cc2)cs1	> 125			
O=C(O)/C(=C\c1ccccc1)NCc1nc(-c2ccccc2)cs1	> 600			
O=C(O)C(Cc1ccccc1[N+](=O)[O-])=NNc1nc(-c2ccc(/N=N/c3ccccc3)cc2)cs1 (mixture of isomers)	150			GI50 (A549 lung cancer cells; [1]): 4 µM
O=C(O)C(Cc1ccccc1)=NNc1nc(-c2ccc3c(c2)OCCO3)cs1 (mixture of isomers)	170			
O=C(O)C(Cc1ccccc1)=NNc1nc(-c2ccc(C3CCCCC3)cc2)cs1 (mixture of isomers)	100			
O=C(O)/C(Cc1ccccc1[N+](=O)[O-])=N/Nc1nc(-c2ccc(Cl)c(Cl)c2)cs1 [E-1, 2-{[4-(3,4-Dichloro-phenyl)-thiazol-2-yl]-hydrazono}-3-(2-nitro-phenyl)-propionic acid]		3 µM		GI50 (A549 lung cancer cells; Table 1, listed as E-4a): 3 µM
O=C(O)/C(Cc1ccccc1[N+](=O)[O-])=N/Nc1nc(-c2ccccc2)cs1 [E-2]		7 µM		GI50 (A549 lung cancer cells; Table 1, listed as E-4r): 7 µM
O=C(O)/C(Cc1ccccc1)=N/Nc1nc(-c2ccc(Cl)c(Cl)c2)cs1 [E-3, 2-{[4-(3,4-Dichloro-phenyl)thiazol-2-yl]-hydrazono}-3-phenyl-propionic acid]	355	6.5 µM	355 µM	GI50 (A549 lung cancer cells; Table 1, listed as E-4s): 6.5 µM
O=C(O)/C(Cc1ccccc1)=N/Nc1nc(-c2ccccc2)cs1 [E-4, 3-Phenyl-2-[(4-phenyl-thiazol-2-yl)-hydrazono]-propionic acid]	> 600	14 µM and 17 µM	> 600 µM	GI50 (A549 lung cancer cells; Table 1, listed as E-4c): 16 µM
O=C(O)/C(=N/Nc1nc(-c2ccccc2)cs1)c1ccccc1 [E-6, Phenyl-[(4-phenyl-thiazol-2-yl)-hydrazono]-acetic acid]		10 µM		GI50 (A549 lung cancer cells; Table 1, listed as E-4h): 10 µM
Cc1sc(N/N=C(\Cc2ccccc2)C(=O)O)nc1-c1ccccc1 [E-9, 2-[(5-Methyl-4-phenyl-thiazol-2-yl)-hydrazono]-3-phenyl-propionic acid]	350	6 µM	> 300 µM	GI50 (A549 lung cancer cells; Table 1, listed as E-4n): 6 µM
O=C(O)/C(Cc1ccccc1)=N/Nc1nc(-c2ccccc2)c(-c2ccccc2)s1 [E-10, 2-[(4,5-Diphenyl-thiazol-2-yl)-hydrazono]-3-phenyl-propionic acid]	90	1.5 µM	100 µM and 88 µM	GI50 (A549 lung cancer cells; Table 1, listed as E-4o): 1.5 µM
O=C(O)/C(Cc1ccccc1)=N/Nc1nc2ccccc2s1 [E-11, 2-(Benzothiazol-2-yl-hydrazono)-3-phenyl-propionic acid]		4 µM		GI50 (A549 lung cancer cells; Table 1, listed as E-4p): 4 µM
COC(=O)/C(Cc1ccccc1)=N/Nc1nc(-c2ccccc2)cs1 [E-13, 3-Phenyl-2-[(4-phenyl-thiazol-2-yl)-hydrazono]-propionic acid methyl ester]		7 µM		GI50 (A549 lung cancer cells; Table 1, listed as E-4f): 7 µM

Structure (SMILES)	IC50 (eIF4E/eIF4G interaction; Table 1 of b280) [µM]	GI50 (A549 lung cancer cells; Table 1)	IC50 (eIF4E/eIF4G interaction; Table 1 of b347)	also measured
O=C(O)C(Cc1ccccc1)=NNc1nnc(-c2ccccc2)s1 [E-16, 3-Phenyl-2-[(5-phenyl-[1,3,4]thiadiazol-2-yl)-hydrazono]-propionic acid]			> 600 µM	GI50 (A549 lung cancer cells; [2]): 9 µM
O=C(O)/C(Cc1ccccc1)=N/Nc1ccc(-c2ccccc2)nn1 [E-17, 3-Phenyl-2-[(6-phenyl-pyridazin-3-yl)-hydrazono]-propionic acid]			> 600 µM	GI50 (A549 lung cancer cells; [2]): 7.5 µM
NC(=O)/C(Cc1ccccc1)=N/Nc1nc(-c2ccccc2)cs1 [E-21, 3-Phenyl-2-[(4-phenyl-thiazol-2-yl)-hydrazono]-propionamide]			> 600 µM	
O=C(O)/C(Cc1ccccc1[N+](=O)[O-])=N/Nc1nc(-c2ccc(Cl)c(Cl)c2)cs1 [Z-1, 2-{[4-(3,4-Dichloro-phenyl)-thiazol-2-yl]-hydrazono}-3-(2-nitro-phenyl)-propionic acid]				GI50 (A549 lung cancer cells; [1]): 6 µM; GI50 (A549 lung cancer cells; [2]): 5 ± 1 µM
O=C(O)/C(Cc1ccccc1[N+](=O)[O-])=N/Nc1nc(-c2ccccc2)cs1 [Z-2]	> 600	> 20 µM	> 600 µM	GI50 (A549 lung cancer cells; Table 1, listed as Z-4r): > 20 µM
O=C(O)/C(Cc1ccccc1)=N/Nc1nc(-c2ccc(Cl)c(Cl)c2)cs1 [Z-3, 2-{[4-(3,4-Dichloro-phenyl)thiazol-2-yl]-hydrazono}-3-phenyl-propionic acid]	300	14 µM		GI50 (A549 lung cancer cells; Table 1, listed as Z-4s): 14 µM
O=C(O)/C(Cc1ccccc1)=N/Nc1nc(-c2ccccc2)cs1 [Z-4, 3-Phenyl-2-[(4-phenyl-thiazol-2-yl)-hydrazono]-propionic acid]	240		240 µM	GI50 (A549 lung cancer cells; [1]): 17 µM; GI50 (A549 lung cancer cells; [2]): > 20 µM
C(/Cc1ccccc1)=N/Nc1nc(-c2ccccc2)cs1 [Z-5, N-Phenethylidene-N′-(4-phenyl-thiazol-2-yl)-hydrazine]	> 600		> 600 µM	GI50 (A549 lung cancer cells; [1]): 7 µM; GI50 (A549 lung cancer cells; [2]): 7 µM
O=C(O)/C(=N/Nc1nc(-c2ccccc2)cs1)c1ccccc1 [Z-6, Phenyl-[(4-phenyl-thiazol-2-yl)-hydrazono]-acetic acid]	> 600		> 600 µM	GI50 (A549 lung cancer cells; [1]): 13 µM; GI50 (A549 lung cancer cells; [2]): 13 µM
C/C(=N\Nc1nc(-c2ccccc2)cs1)C(=O)O [Z-7, 2-[(4-Phenyl-thiazol-2-yl)-hydrazono]-propionic acid]	> 600		> 600 µM	GI50 (A549 lung cancer cells; [1]): > 20 µM; GI50 (A549 lung cancer cells; [2]): > 20 µM
Cc1sc(N/N=C(\Cc2ccccc2)C(=O)O)nc1-c1ccccc1 [Z-9, 2-[(5-Methyl-4-phenyl-thiazol-2-yl)-hydrazono]-3-phenyl-propionic acid]	240		240 µM	GI50 (A549 lung cancer cells; [1]): 4 µM; GI50 (A549 lung cancer cells; [2]): 4 µM
O=C(NC(Cc1ccccc1)C(=O)O)c1nc(-c2ccccc2)cs1 (stereo not shown) [compound 18, 3-Phenyl-2-[(4-phenyl-thiazole-2-carbonyl)-amino]-propionic acid]			> 600 µM	
O=C(O)C(Cc1ccccc1)C(=O)Nc1nc(-c2ccccc2)cs1 (stereo not shown) [compound 19, 2-Benzyl-N-(4-phenyl-thiazol-2-yl)-malonamic acid]			> 600 µM	
O=C(O)C(Cc1ccccc1)NCc1nc(-c2ccccc2)cs1 (stereo not shown) [compound 20, 3-Phenyl-2-[(4-phenyl-thiazol-2-ylmethyl)-amino]-propionic acid]				IC50 (μM) (4E/4G FP) (eIF4E/eIF4G interaction; Table 1 of b347): insoluble
O=C(O)C(CNc1nc(-c2ccccc2)cs1)Cc1ccccc1 (stereo not shown) [compound 22, 2-Benzyl-3-(4-phenyl-thiazol-2-ylamino)-propionic acid]			> 600 µM	
O=C(NC(Cc1ccccc1)C(=O)O)c1nc(-c2ccccc2)cs1 (stereo not shown) [drawing 69]	> 600			
O=C(O)C(Cc1ccccc1)C(=O)Nc1nc(-c2ccccc2)cs1 (stereo not shown) [drawing 70]	> 600			
O=C(O)C(Cc1ccccc1)NCc1nc(-c2ccccc2)cs1 (stereo not shown) [drawing 71]				IC50 (μM) (4E/4G FP) (eIF4E/eIF4G interaction; Table 1 of b280): insoluble
